This is an account of results in patent publication US20260209189A1, “ISOXAZOLINE-SUBSTITUTED BENZAMIDE COMPOUND AND APPLICATION THEREOF” (priority 2022, published 2026).

Where two headings read alike, the source gives them in different places.

Holding throughout (type): in vivo
In assay [1] the test system is Aphis gossypii. Description: Assay of insecticidal activity of compositions (synergism), zucchini leaves, adult aphid. The settings on record: for pest or weed control at 1 µg/mL: B 1 ppm. How it is done:
(§1) The compound of the present invention was dissolved in acetone, and then diluted with water into liquids with gradients of different concentrations (ppm). Corn leaves were soaked in liquids of different concentrations for about 20 seconds, air-dried and then placed in petri dishes where 3rd instar Spodoptera frugiperda were placed, respectively; kale leaves were soaked in liquids of different concentrations for about 20 seconds, air-dried and then placed in petri dishes where 3rd instar Spodoptera frugiperda were placed, respectively; peanut leaves were soaked in liquids of different concentrations for about 20 seconds, air-dried and then placed in petri dishes where Tetranychus urticae (adult mite) and Aphis craccivora (adult aphid) were placed, respectively; water bamboo leaves were soaked in liquids of different concentrations for about 20 seconds, air-dried and then placed in petri dishes where 4th instar Chilo suppressalis were placed, respectively. Each petri dish was placed with 10 insects, covered and then stored at 25° C. in a constant temperature room. The number of dead insects were checked after 48 h. The dead insect rate was calculated by the formula: Death rate (%)=(Number of dead insects/Number of test insects)×100. Furthermore, the experiment was conducted in two replications.
• Test targets: Spodoptera frugiperda (3rd instar) and Aphis gossypii (adult aphid)
Referring to the above-mentioned Insecticidal activity assay, when the test target was Aphis gossypii, the zucchini leaves were selected.
(§2) Different ratios within the selected ratio range were set for toxicity determination, and the optimal ratio was selected according to synergistic effects. When the synergistic effect >0, it indicated a synergistic effect; when the synergistic effect is close to 0, it indicated an addition effect; when the synergistic effect <0, it indicated an antagonistic effect.
(§3) [formula] • wherein, P1, P2—Death rate by each individual agent in a mixed formulation.

Assay [2] has as its system Spodoptera frugiperda. Description: Assay of insecticidal activity of compositions (synergism), 3rd instar. The conditions noted are these: for pest or weed control at 50 µg/mL: B 50 ppm; for pest or weed control at 1 µg/mL: B 1 ppm. How it is done:
as §1
• Test targets: Spodoptera frugiperda (3rd instar) and Aphis gossypii (adult aphid) […]
as §2, §3

Assay [3] relates to Spodoptera frugiperda. As to the kind of experiment: Insecticidal activity assay, corn leaf dip, 3rd instar larvae. The settings on record: liquid concentration 0.3 ppm, 48 h. How it is done: as §1
The test system of assay [4] is Tetranychus urticae. Description: Insecticidal activity assay, peanut leaf dip, adult mite. The conditions noted are these: 48 h. On the procedure: as §1
Assay [5] concerns Spodoptera exigua. Description: Insecticidal activity assay, kale leaf dip, 3rd instar larvae. The settings on record: liquid concentration 0.3 ppm, 48 h.
In assay [6] the test system is Aphis craccivora. As to the kind of experiment: Insecticidal activity assay, peanut leaf dip, adult aphid. The conditions noted are these: liquid concentration 8.1 ppm, 48 h. On the procedure:
as §1

The mark [7] stands for this setting: in Cucurbita pepo, 48 h, read-out: Death rate by individual B.
[8] abbreviates: 48 h, read-out: Death rate by individual B.
[9] abbreviates: 48 h, B 2 ppm, read-out: Death rate by individual B.

With `CCc1nn(C)c(C(=O)NCc2ccc(Oc3ccc(C)cc3)cc2)c1Cl` [Tolfenpyrad, reference compound], the pest or weed control at 1 µg/mL in assay [1] (setting [7]) amounted to 35%.
The same measure, in the same setting: then `CCN(Cc1ccc(Cl)nc1)/C(=C/[N+](=O)[O-])NC` [Nitenpyram, reference compound], with 36%; and `CN1COCN(Cc2cnc(Cl)s2)/C1=N\[N+](=O)[O-]` [Thiamethoxam, reference compound], with 64%.
For Spinetoram [reference compound], the “Death rate by individual B” value in assay [2] (B 0.5 ppm) is 62%.
Turning to `CCOC(=O)[C@@H](C)NC(=O)c1ccc(C2=NOC(c3cc(Cl)c(Cl)c(C(F)(F)F)c3)(C(F)(F)F)C2)cc1C` (stereo partly drawn) [Compound 30 (2R)], the values for the Death rate in assay [3] and in assay [4] (liquid concentration 0.9 ppm) were 90% and 80%, respectively.
On to `CC(c1ccc(C(F)(F)F)nc1)S(C)(=O)=NC#N` (centres unmarked) [Sulfoxaflor, reference compound], for which the pest or weed control at 2 µg/mL in assay [1] (in Cucurbita pepo, 48 h, B 2 ppm, read-out: Death rate by individual B) was found to be 46%.
With `CCOCn1c(-c2ccc(Cl)cc2)c(C#N)c(Br)c1C(F)(F)F` [Chlorfenapyr, reference compound], the pest or weed control at 50 µg/mL in assay [2] (setting [8]) amounted to 59%.
In the case of `COc1cccc(C(=O)NN(C(=O)c2cc(C)cc(C)c2)C(C)(C)C)c1C` [Methoxyfenozide, reference compound], the pest or weed control at 2 µg/mL in assay [2] (setting [9]) came out at 31%.
On to `COC(=O)C(C)NC(=O)c1ccc(C2=NOC(c3cc(Cl)c(OC)c(C(F)(F)F)c3)(C(F)(F)F)C2)cc1C` (mixture of isomers) [183 (2R)], for which the Death rate in assay [3] and in assay [5] was 100% in each case.
In the case of Emamectin-benzoate [reference compound], the “Death rate by individual B” value in assay [2] (B 2 ppm) is reported as 37%.
Regarding `CNC(=O)c1cc(C#N)cc(C)c1NC(=O)c1cc(Br)nn1-c1ncccc1Cl` [Cyantraniliprole, reference compound], the pest or weed control at 5 µg/mL in assay [1] (in Cucurbita pepo, 48 h, B 5 ppm, read-out: Death rate by individual B) is 36%.
Regarding `CCOC(=O)OC1=C(c2c(C)cc(Cl)cc2C)C(=O)N(C)C12CCN(OC)CC2` [Spiropidion, reference compound], the “Death rate by individual B” value in assay [2] (B 2 ppm) worked out at 39%.
As to `Cc1cc(C2=NOC(c3cc(Cl)c(Cl)c(C(F)(F)F)c3)(C(F)(F)F)C2)ccc1C(=O)N[C@H](C)C(=O)O` (stereo partly drawn) [Compound 151 (2R)], the Death rate in assay [4] (liquid concentration 8.1 ppm) stood at 100%.
Consider `CCN(C(=O)c1cnn(C(C)C(C)C)c1C)c1ccnnc1` (centres unmarked) [dimpropyridaz, Dimpropyridaz, reference compound], for which, in assay [1] (B 2 ppm), the “Death rate by individual B” value was found to be 48%.
Take `COC(=O)C(C)NC(=O)c1ccc(C2=NOC(c3cc(Cl)c(SC)c(C(F)(F)F)c3)(C(F)(F)F)C2)cc1C` (mixture of isomers) [187 (2R)]: the Death rate in assay [4] (liquid concentration 8.1 ppm) worked out at 63%.
Turning to `COC(=O)C(C)NC(=O)c1ccc(C2=NOC(c3cc(Cl)c(Cl)c(C(F)(F)F)c3)(C(F)(F)F)C2)cc1C(C)C` (mixture of isomers) [141 (2R)], the Death rate in assay [3] is on record as 90%.
On to `CC1(C)[C@H](C(=O)O[C@H](C#N)c2cccc(Oc3ccccc3)c2)[C@@H]1/C=C(\Cl)C(F)(F)F` (racemic) [lambda-cyhalothrin, lambda-Cyhalothrin, reference compound], for which the pest or weed control at 2 µg/mL in assay [2] (setting [9]) was 41%.
Molecule `COC(=O)C(C)NC(=O)c1ccc(C2=NOC(c3cc(Cl)c(OC)c(C(F)(F)F)c3)(C(F)(F)F)C2)cc1C` [Compound 183 (5S, 2R)] yielded a Death rate in assay [4] (liquid concentration 8.1 ppm) of 70%.
Molecule `C=CCOC(=O)C(C)NC(=O)c1ccc(C2=NOC(c3cc(Cl)c(Cl)c(C(F)(F)F)c3)(C(F)(F)F)C2)cc1C` (mixture of isomers) [41 (2R)] gave a Death rate in assay [4] (liquid concentration 0.9 ppm) of 75%.
On to `CNC(=O)c1cc(Cl)cc(C)c1NC(=O)c1cc(Br)nn1-c1ncccc1Cl` [Chlorantraniliprole, reference compound], for which, in assay [2] (48 h, B 0.5 ppm, read-out: Death rate by individual B), the pest or weed control at 0.5 µg/mL stood at 50%.
For `C#CCOC(=O)C(C)NC(=O)c1ccc(C2=NOC(c3cc(Cl)c(Cl)c(C(F)(F)F)c3)(C(F)(F)F)C2)cc1C` (mixture of isomers) [43 (2R)], the Death rate in assay [4] (liquid concentration 0.9 ppm) is recorded as 85%.
With `CCn1nc(C)cc1/C(OC(=O)C(C)(C)C)=C(/C#N)c1ccc(C(C)(C)C)cc1` [Cyetpyrafen, reference compound], the “Death rate by individual B” value in assay [2] (B 100 ppm) was 30%.
Take `Cc1c(COC(=O)[C@@H]2[C@H](/C=C(\Cl)C(F)(F)F)C2(C)C)cccc1-c1ccccc1` (racemic) [Bifenthrin, reference compound]: in assay [2] (setting [8]), the pest or weed control at 1 µg/mL stood at 22%.
`COC(=O)[C@@H](C)N(C)C(=O)c1ccc(C2=NOC(c3cc(Cl)c(Cl)c(C(F)(F)F)c3)(C(F)(F)F)C2)cc1C` (stereo partly drawn) [Compound 4 (2R)] came in with a Death rate in assay [3] of 100%.
In turn, `Cc1cc(C2=NOC(c3cc(Cl)c(Cl)c(C(F)(F)F)c3)(C(F)(F)F)C2)ccc1C(=O)NC(C)C(=O)OCCO` (mixture of isomers) [57 (2R)] had a Death rate in assay [4] (liquid concentration 8.1 ppm) of 90%.
The molecule `COC(=O)C(C)NC(=O)c1ccc(C2=NOC(c3cc(F)c(F)c(C(F)(F)F)c3)(C(F)(F)F)C2)cc1C` (mixture of isomers) [181 (2R)] returned a Death rate in assay [4] (liquid concentration 8.1 ppm) of 70%.
`COC(=O)C(CCSC)NC(=O)c1ccc(C2=NOC(c3cc(Cl)c(Cl)c(C(F)(F)F)c3)(C(F)(F)F)C2)cc1C` (mixture of isomers) [180 (2R)] showed a Death rate in assay [4] (liquid concentration 8.1 ppm) of 45%.
As to `CC1=NNC(=O)N(/N=C/c2cccnc2)C1` [Pymetrozine, reference compound], the pest or weed control at 50 µg/mL in assay [2] (setting [8]) came out at 30%.
As for `CC(C)c1cc(Oc2ccccc2)cc(C(C)C)c1NC(=S)NC(C)(C)C` [Diafenthiuron, reference compound], the pest or weed control at 100 µg/mL in assay [2] (setting [8]) turned out to be 49%.
For the molecule `CCOC(=O)OC1=C(c2cc(C)ccc2C)C(=O)N[C@]12CC[C@@H](OC)CC2` [Spirotetramat, reference compound], the pest or weed control at 100 µg/mL in assay [2] (48 h, B 100 ppm, read-out: Death rate by individual B) stood at 47%.
In the case of `O=c1c(-c2cccc(C(F)(F)F)c2)c([O-])[n+](Cc2cncnc2)c2ccccn12` [Triflumezopyrim, reference compound], the “Death rate by individual B” value in assay [2] (B 100 ppm) is on record as 33%.
Take Abamectin [reference compound]: the “Death rate by individual B” value in assay [2] (B 100 ppm) turned out to be 25%.
`O=C(NC(=O)c1c(F)cccc1F)Nc1cc(Cl)c(OC(F)(F)C(F)C(F)(F)F)cc1Cl` (centres unmarked) [Lufenuron, reference compound]: in assay [2] (setting [8]), the pest or weed control at 50 µg/mL turned out to be 38%.
`Cc1cc(C2=NOC(c3cc(Cl)c(Cl)c(C(F)(F)F)c3)(C(F)(F)F)C2)ccc1C(=O)NC(C)C(=O)O` [Compound 151 (5S, 2R)] showed a Death rate in assay [4] (liquid concentration 8.1 ppm) of 100%.
As for `COC(=O)C(CC(N)=O)NC(=O)c1ccc(C2=NOC(c3cc(Cl)c(Cl)c(C(F)(F)F)c3)(C(F)(F)F)C2)cc1C` (mixture of isomers) [179 (2R)], in assay [4] (liquid concentration 8.1 ppm), the Death rate is listed as 80%.
Regarding `N#Cc1nn(-c2c(Cl)cc(C(F)(F)F)cc2Cl)c(N)c1[S+]([O-])C(F)(F)F` (centres unmarked) [Fipronil, reference compound], in assay [2] (setting [8]), the pest or weed control at 1 µg/mL was determined as 43%.
With `COC(=O)C(NC(=O)c1ccc(C2=NOC(c3cc(Cl)c(Cl)c(C(F)(F)F)c3)(C(F)(F)F)C2)cc1C)C1CC1` (centres unmarked) [Compound 118], the Death rate in assay [5] stood at 60%; in assay [6], 40%.
Take `COC(=O)C(Cc1ccccc1)NC(=O)c1ccc(C2=NOC(c3cc(Cl)c(Cl)c(C(F)(F)F)c3)(C(F)(F)F)C2)cc1C` (mixture of isomers) [131 (2R)]: the Death rate in assay [4] (liquid concentration 8.1 ppm) came to 80%.
Turning to `COC(=O)N(C(=O)N1CO[C@@]2(C(=O)OC)Cc3cc(Cl)ccc3C2=N1)c1ccc(OC(F)(F)F)cc1` [Indoxacarb, reference compound], the “Death rate by individual B” value in assay [2] (B 0.5 ppm) is 36%.
For `COP(=O)(NC(C)=O)SC` (centres unmarked) [Acephate, reference compound], the pest or weed control at 300 µg/mL in assay [2] (setting [8]) was found to be 38%.
Take `COC(=O)C(NC(=O)c1ccc(C2=NOC(c3cc(Cl)c(Cl)c(C(F)(F)F)c3)(C(F)(F)F)C2)cc1C)OC` (centres unmarked) [Compound 124]: the results for the Death rate in assay [3], in assay [4] (liquid concentration 8.1 ppm) and in assay [5] were 80%, 77% and 70%, respectively.
For `Cc1cc(C)c(C2=C(OC(=O)CC(C)(C)C)C3(CCCC3)OC2=O)c(C)c1` [Spiromesifen, reference compound], in assay [2] (B 100 ppm), the “Death rate by individual B” value stood at 49%.
`CC(C)N1C(=O)N(c2ccccc2)CS/C1=N\C(C)(C)C` [Buprofezin, reference compound]: the pest or weed control at 10 µg/mL in assay [2] (48 h, B 10 ppm, read-out: Death rate by individual B) stood at 36%.
With `COC(=O)C(NC(=O)c1ccc(C2=NOC(c3cc(Cl)c(Cl)c(C(F)(F)F)c3)(C(F)(F)F)C2)cc1C)C(C)C` (centres unmarked) [Compound 111], the Death rate in assay [5] stood at 60%; in assay [6], 40%.
